Data reported in patent US9724352B2, “Pyrrolo[2,1-F[1,2,4]triazine compounds, preparation methods and applications thereof” (Shanghai Institute of Materia Medica, Chinese Academy of …, priority 2012, dated 2017).

How the values were obtained:
[1] = system: human rhabdomyosarcoma Rh30 cells; assay: Proliferation of Rh30 cells (sulforhodamine B); assay type: cell-based; conditions: Homo sapiens, Rh30, 72 h; read-out: IC50 against proliferation of Rh30 cells
Method: Rh30 cells were seeded in a 96-well plate at 3000 cells/well. After the cells adhered, tested compounds at concentration of 10, 3, 1, 0.3, or 0.1 μM were added, and incubated for 72 h. The culture media were discarded and cells were fixed with trichloroacetic acid. After washed with distilled water for five times and dried, sulfonylrhodamine B was added. After washed with 1% glacial acetic acid for five times and dried, trihydroxymethylaminomethane buffer was added. OD value was measured by using a microplate reader at a wavelength of 560 nm.

[2] = system: endometrial cancer cells E-RL95-2; assay: Proliferation of human cancer cell panel; assay type: cell-based; conditions: read-out: inhibitory activity on proliferation
Text: (§1) I-30 and I-33 were selected to test their activity on the proliferation of human cancer cells originated from different tissue types.

P-PC-3 = assay: Proliferation of human cancer cell panel; assay type: cell-based; conditions: read-out: inhibitory activity on proliferation
Text: as §1

[3] = system: rhabdomyosarcoma cells S-RH30; assay: Proliferation of human cancer cell panel; assay type: cell-based; conditions: read-out: inhibitory activity on proliferation
Text: as §1

LG-NCI-H460 = assay: Proliferation of human cancer cell panel; assay type: cell-based; conditions: read-out: inhibitory activity on proliferation
Text: as §1

LG-NCI-H23 = assay: Proliferation of human cancer cell panel; assay type: cell-based; conditions: read-out: inhibitory activity on proliferation
Text: as §1

B-BT474 = assay: Proliferation of human cancer cell panel; assay type: cell-based; conditions: read-out: inhibitory activity on proliferation
Text: as §1

B-MCF-7 = assay: Proliferation of human cancer cell panel; assay type: cell-based; conditions: read-out: inhibitory activity on proliferation
Text: as §1

O-SKOV-3 = assay: Proliferation of human cancer cell panel; assay type: cell-based; conditions: read-out: inhibitory activity on proliferation
Text: as §1

[4] = system: colorectal cancer cells C-LOVO; assay: Proliferation of human cancer cell panel; assay type: cell-based; conditions: read-out: inhibitory activity on proliferation
Text: as §1

[5] = system: gastric cancer cells G-MKN-45; assay: Proliferation of human cancer cell panel; assay type: cell-based; conditions: read-out: inhibitory activity on proliferation
Text: as §1

[6] = system: hepatoma cells L-BEL-7402; assay: Proliferation of human cancer cell panel; assay type: cell-based; conditions: read-out: inhibitory activity on proliferation
Text: as §1

[7] = system: colon cancer cells C-HCT-116; assay: Proliferation of human cancer cell panel; assay type: cell-based; conditions: read-out: inhibitory activity on proliferation
Text: as §1

PI3Kα = PI3Kα (Homo sapiens (Human), UniProt P42336); assay: Inhibition on PI3K kinase activity (Kinase-Glo Plus luminescent assay); assay type: biochemical; conditions: 2 μM ATP, 1 hour at room temperature
Method: The activity of purified kinase was detected with Kinase-Glo® Plus kinase luminescent assay by measuring the amount of the remaining […] in the solution after the kinase reaction was completed. […] After reaction was performed for 1 hour at room temperature, 10 μL of Kinase Glo-Plus mixture was added and incubated for 1 hour to quench the reaction.

[8] = system: human neuroglioma U87-MG xenograft; assay: Growth of U87-MG xenograft subcutaneously transplanted in nude mouse; assay type: in vivo; conditions: 50 mg/kg p.o. once a day
Method: Well-developed tumors in nude mice were cut into 1.5 mm3 fragments and transplanted s.c. into the right flank of nude mice under sterile conditions. The diameters of subcutaneously transplanted tumours in nude mice were measured with a vernier calipe. […] Control groups were given the same amount of blank solvent, and treatment groups received tested compounds (p.o.). Compounds were administrated once a day for three weeks. Throughout the experiment, the sizes of the tumours were measured twice per week and meanwile the body weights of mice were weighed. The tumour volume (TV) was calculated as follows: TV=½×a×b2, wherein a and b represent the length and width, respectively. The individual relative tumour volume (RTV) was calculated as follows: RTV=Vt/V0, where V0 is the volume at the beginning of the treatment and Vt is the volume measured every time. Evaluation index of antitumor activity was relative tumor proliferation rate T/C (%), the calculation formula of which was as follows: T/C (%)=(TRTV/CRTV)×100%, TRTV:RTV of treatment group; CRTV:RTV of negative control group.

Sequence of PI3Kα (P42336 whole entry): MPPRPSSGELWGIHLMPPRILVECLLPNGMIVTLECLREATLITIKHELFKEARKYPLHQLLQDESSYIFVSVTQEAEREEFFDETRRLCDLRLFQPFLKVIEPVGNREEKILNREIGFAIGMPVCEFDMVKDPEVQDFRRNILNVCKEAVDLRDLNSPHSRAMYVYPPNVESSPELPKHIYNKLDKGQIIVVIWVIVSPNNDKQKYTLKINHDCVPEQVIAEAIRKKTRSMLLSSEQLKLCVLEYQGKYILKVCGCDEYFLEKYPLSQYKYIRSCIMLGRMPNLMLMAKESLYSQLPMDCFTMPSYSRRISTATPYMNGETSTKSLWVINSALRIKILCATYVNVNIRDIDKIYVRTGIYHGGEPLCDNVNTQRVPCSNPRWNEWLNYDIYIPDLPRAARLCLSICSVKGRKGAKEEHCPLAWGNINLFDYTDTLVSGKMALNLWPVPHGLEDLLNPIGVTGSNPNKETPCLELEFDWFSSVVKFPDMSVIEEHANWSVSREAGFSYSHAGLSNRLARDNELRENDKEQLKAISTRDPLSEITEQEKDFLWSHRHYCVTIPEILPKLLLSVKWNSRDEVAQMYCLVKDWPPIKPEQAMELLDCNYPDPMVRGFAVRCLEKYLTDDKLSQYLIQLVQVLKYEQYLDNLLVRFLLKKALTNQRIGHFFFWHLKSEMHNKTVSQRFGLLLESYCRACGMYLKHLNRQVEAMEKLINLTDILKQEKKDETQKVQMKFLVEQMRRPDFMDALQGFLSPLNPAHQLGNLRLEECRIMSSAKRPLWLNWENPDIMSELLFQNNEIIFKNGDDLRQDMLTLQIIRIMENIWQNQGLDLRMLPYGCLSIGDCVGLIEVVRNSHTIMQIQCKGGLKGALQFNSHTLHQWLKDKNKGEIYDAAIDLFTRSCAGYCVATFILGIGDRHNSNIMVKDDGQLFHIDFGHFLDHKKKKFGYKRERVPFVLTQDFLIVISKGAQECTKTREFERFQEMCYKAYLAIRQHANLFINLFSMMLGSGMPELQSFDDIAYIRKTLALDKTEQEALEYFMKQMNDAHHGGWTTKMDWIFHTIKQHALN
Sequence of PI3Kα (P27986 whole entry partner): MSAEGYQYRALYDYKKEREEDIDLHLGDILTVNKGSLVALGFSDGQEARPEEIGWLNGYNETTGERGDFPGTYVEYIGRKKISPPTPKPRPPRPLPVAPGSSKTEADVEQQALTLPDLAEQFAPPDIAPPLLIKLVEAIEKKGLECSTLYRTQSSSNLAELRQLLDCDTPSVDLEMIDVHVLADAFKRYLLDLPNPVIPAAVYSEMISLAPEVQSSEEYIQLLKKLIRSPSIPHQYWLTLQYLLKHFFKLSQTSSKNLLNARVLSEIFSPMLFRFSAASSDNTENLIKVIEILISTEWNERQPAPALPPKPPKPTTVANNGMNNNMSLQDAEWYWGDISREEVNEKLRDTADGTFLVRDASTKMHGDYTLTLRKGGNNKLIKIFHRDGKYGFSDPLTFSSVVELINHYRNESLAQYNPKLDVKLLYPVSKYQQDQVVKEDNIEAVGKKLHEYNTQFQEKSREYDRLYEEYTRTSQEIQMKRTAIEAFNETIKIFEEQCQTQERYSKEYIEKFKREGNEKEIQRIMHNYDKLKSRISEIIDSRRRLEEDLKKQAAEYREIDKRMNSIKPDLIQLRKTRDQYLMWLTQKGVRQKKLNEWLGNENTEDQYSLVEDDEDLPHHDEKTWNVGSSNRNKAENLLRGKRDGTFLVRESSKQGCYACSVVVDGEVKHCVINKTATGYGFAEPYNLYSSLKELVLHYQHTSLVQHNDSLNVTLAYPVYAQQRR

CCNC(=O)Nc1cc(C(F)(F)F)c(-c2nc(N3CCOCC3)c3cc(CN4CCN(S(C)(=O)=O)CC4)cn3n2)cn1 [Compound I-30, 1-ethyl-3-(5-(6-((4-(methylsulfonyl)piperazin-1-yl)methyl)-4-morpholinopyrrolo[2,1-f][1,2,4]triazin-2-yl)-4-(trifluoromethyl)pyridin-2-yl)urea]
IC50 [1]: 820 nM
IC50 [2]: 2000 nM
IC50 (P-PC-3): 601 nM
IC50 [3]: 256 nM
IC50 (LG-NCI-H460): 660 nM
IC50 (LG-NCI-H23): 890 nM
IC50 (B-BT474): 32 nM
IC50 (B-MCF-7): 2510 nM
IC50 (O-SKOV-3): 46 nM
IC50 [4]: 493 nM
IC50 [5]: 1550 nM
IC50 [6]: 3200 nM
IC50 [7]: 9700 nM
IC50 (PI3Kα): 8.19 nM

CS(=O)(=O)N1CCN(Cc2cc3nc(-c4cccc5[nH]ncc45)nc(N4CCOCC4)c3s2)CC1 [GDC0941, reference compound]
IC50 [2]: 2200 nM
IC50 (P-PC-3): 636 nM
IC50 [3]: 478 nM
IC50 (LG-NCI-H460): 1660 nM
IC50 (LG-NCI-H23): 1200 nM
IC50 (B-BT474): 256 nM
IC50 (B-MCF-7): 519 nM
IC50 (O-SKOV-3): 316 nM
IC50 [4]: 517 nM
IC50 [5]: 1670 nM
IC50 [6]: 3200 nM
IC50 [7]: 8100 nM
Relative tumor proliferation rate T/C ([8]; d0): 100.00%
Relative tumor proliferation rate T/C ([8]; d3): 75.12%
Relative tumor proliferation rate T/C ([8]; d7): 79.34%
Relative tumor proliferation rate T/C ([8]; d10): 74.75%
Relative tumor proliferation rate T/C ([8]; d14): 56.86%
Relative tumor proliferation rate T/C ([8]; d17): 53.57%
Relative tumor proliferation rate T/C ([8]; d21): 51.40%
